In US9586928B2 (The Scripps Research Institute, priority 2011, dated 2017):

Legend:
GST-RORγ = target: T1, GST-RORγ (Homo sapiens, UniProt P51449); assay: RORγ scintillation proximity (SPA) radioligand binding assay, displacement of [3H]-T0901317; details: 10 μM compound; read-out: RORγ SPA % bound = % radiolabel bound
T1 construct: 1 μg of GST-RORγ-LBD, 5 nM of [3H]T1317 as radioligand
T1 sequence (P51449 269-508 limits assumed): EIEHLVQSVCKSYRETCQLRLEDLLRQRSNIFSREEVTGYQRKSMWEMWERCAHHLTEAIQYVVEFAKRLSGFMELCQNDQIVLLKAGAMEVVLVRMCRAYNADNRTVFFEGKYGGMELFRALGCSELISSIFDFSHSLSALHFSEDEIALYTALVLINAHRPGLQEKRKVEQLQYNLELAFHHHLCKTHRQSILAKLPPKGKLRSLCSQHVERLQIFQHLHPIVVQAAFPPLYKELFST

RORα = target: T2, RORα (Homo sapiens, UniProt P35398); assay: Gal4-RORα LBD / UAS luciferase cotransfection assay; assay type: cell-based; details: 10 μM
T2 construct: expressed in transfected cells; host or cells: HEK293T
T2 sequence (P35398 272-510 limits assumed): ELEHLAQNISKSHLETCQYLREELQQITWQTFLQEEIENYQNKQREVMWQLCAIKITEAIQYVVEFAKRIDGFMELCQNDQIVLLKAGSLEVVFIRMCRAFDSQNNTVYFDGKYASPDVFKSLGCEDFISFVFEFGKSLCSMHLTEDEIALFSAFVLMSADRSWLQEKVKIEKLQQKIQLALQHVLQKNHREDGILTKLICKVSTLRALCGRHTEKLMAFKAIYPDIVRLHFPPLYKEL
Method: (§2) The cells were treated with either DMSO or various compounds as indicated four hours after replating. Following additional 20 hour incubation, luciferase levels were assayed by one-step addition of 20 μL BriteLite (Perkin Elmer) and read using an Envision multilabel plate reader (Perkin Elmer).
(§3) Cotransfection assays were performed as previously described in HEK293 cells (Gal4 cotransfection assay or IL-17 luciferase reporter)[8]. HEK293 and the mouse lymphoma EL4 (ATCC) cells were maintained in DMEM supplemented with 10% FBS plus antibiotics (penicillin and streptomycin; Invitrogen).

RORγ = target: T3, RORγ (Homo sapiens, UniProt P51449); assay: Gal4-RORγ LBD / UAS luciferase cotransfection assay; assay type: cell-based; details: 10 μM
T3 construct: expressed in transfected cells; host or cells: HEK293T
T3 sequence (P51449 269-508 limits assumed): T1 sequence (P51449 269-508 limits assumed)
Method: as §2, §3

VP16 = assay: Gal4 DBD-VP16 / UAS luciferase control assay; assay type: cell-based; details: 10 μM
Method: as §2

LXR = target: T4, LXR (Homo sapiens, UniProt Q13133); assay: Gal4-LXRα / UAS luciferase cotransfection assay; assay type: cell-based; details: 10 μM
T4 sequence (Q13133 209-447 limits assumed): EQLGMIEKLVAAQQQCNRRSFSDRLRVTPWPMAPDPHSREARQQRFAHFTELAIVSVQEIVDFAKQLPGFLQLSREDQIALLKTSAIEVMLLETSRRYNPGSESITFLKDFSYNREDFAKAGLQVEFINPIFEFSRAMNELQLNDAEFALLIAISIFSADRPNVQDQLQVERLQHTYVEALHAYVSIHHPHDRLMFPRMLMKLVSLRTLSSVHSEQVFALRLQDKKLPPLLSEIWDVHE
Method: as §2, §3

TH17 cells = details: in vitro and in vivo; cited from earlier work
[1] = mouse, in vivo; cited from earlier work
EL-4 cells [2] = assay: IL-17A and IL-23R mRNA in PMA/ionomycin stimulated EL-4 cells (real-time PCR); assay type: cell-based, murine; details: 5 μM pre-treatment 20 hr, PMA/ionomycin stimulation
Method: (§1) The treatment of EL4 with SR2211 repressed the Il17 gene expression to a greater extent as compared to digoxin. […] In order to measure the effect of SR2211 on IL-17 production, we determined the intracellular levels of IL-17 using flow cytometry. After the stimulation of EL-4 cells with PMA/ionomycin for 3 hr, the cells were treated with BD GolgiPlug™ (protein transport inhibitor) to allow intracellular accumulation of cytokines. After 2 hr, the cells were fixed and stained to analyze the IL-17 by flow cytometry.
One million EL-4 cells were seeded in each well of 6 well plate and incubated with 5 uM of digoxin or SR2211 or DMSO for 20 hrs. Cells were then stimulated with phorbol 12-myristate 13-acetate (PMA) (50 ng/ml; Sigma) and Ionomycin (1 ug/ml; Sigma) for 5 hours. Then, RNA was extracted with RNeasy midi kit using DNase I (Qiagen), then cDNA was synthesized with high capacity cDNA Reverse Transcription kits (Applied Biosystems). IL17A gene expression was normalized to the expression of GAPDH. IL17A, IL-23R and GAPDH primer sets were as follows: […]

EL-4 cells [3] = assay: Intracellular IL-17 in PMA/ionomycin stimulated EL-4 cells (flow cytometry); assay type: cell-based, murine; details: 5 μM, compared to vehicle treated cells
Method: as §1
For intracellular cytokine staining, cells were stimulated with PMA (50 ng/Ml) and lonomycin (1 ug/ml) for 5 hrs. After 3 hrs of incubation, BD Golgiplug (BD Bioscience) was added and incubated for 2 hrs. Then, cells were fixed, permeabilized, and stained with PEIL17A Ab (BD Biosciences). Cell sorting was performed using LSRII (BD Biosciences). • 1. Ivanov, I I; McKenzie, B. S.; Zhou, L.; Tadokoro, C. E.; Lepelley, A.; Lafaille, J. J.; Cua, D. J.; Littman, D. R. (2006) The orphan nuclear receptor RORgammat directs the differentiation program of proinflammatory IL-17+ T helper cells. Cell 126, 1121-1133. • 2. Nakae, S.; Nambu, A.; Sudo. K.; Iwakura. Y. (2003) Suppression of immune induction of collagen-induced arthritis in IL-17-deficient mice. J Immunol 171, 6173-6177. • 3. Jetten. […]

SMILES | remaining activity at 10 µM (GST-RORγ) | RORα repression, fold change over DMSO (RORα) | RORγ repression, fold change over DMSO (RORγ) | VP16 repression, fold change over DMSO (VP16) | LXR activation, fold change over DMSO (LXR) | TH17 cell differentiation and function (TH17 cells) | onset and severity of EAE [1] | IL-17 gene expression (EL-4 cells [2]) | expression of IL-23 receptor (Il23r) (EL-4 cells [2]) | IL-17 intracellular staining (EL-4 cells [3])
OC(c1ccc(-c2ccc(CN3CCN(Cc4cscn4)CC3)cc2)cc1)(C(F)(F)F)C(F)(F)F [Compound 115, 1,1,1,3,3,3-Hexafluoro-2-(4′-((4-(thiazol-4-ylmethyl)piperazin-1-yl)methyl)-[1,1′-biphenyl]-4-yl)propan-2-ol] | 75% | 0.61 fold change over DMSO | 0.31 fold change over DMSO | 0.69 fold change over DMSO | 0.76 fold change over DMSO |  |  |  |  | 
O=C(c1cscn1)N1CCN(Cc2ccc(-c3ccc(C(O)(C(F)(F)F)C(F)(F)F)cc3)cc2)CC1 [Compound 116, (4-((4′-(1,1,1,3,3,3-Hexafluoro-2-hydroxypropan-2-yl)-[1,1′-biphenyl]-4-yl)methyl)piperazin-1-yl)(thiazol-4-yl)methanone] | 76% | 0.56 fold change over DMSO | 0.59 fold change over DMSO | 0.76 fold change over DMSO | 0.81 fold change over DMSO |  |  |  |  | 
CC(=O)Nc1nc(C)c(S(=O)(=O)Nc2ccc(C(O)(C(F)(F)F)C(F)(F)F)cc2)s1 [SR1001, N-(5-(N-(4-(1,1,1,3,3,3-hexafluoro-2-hydroxypropan-2-yl)phenyl)sulfamoyl)-4-methylthiazol-2-yl)acetamide] |  |  |  |  |  | effective at suppressing TH17 cell differentiation and function in vitro and in vivo | effective at delaying the onset and reducing the severity |  |  | 
C[C@H]1O[C@@H](O[C@H]2[C@@H](O)C[C@H](O[C@H]3[C@@H](O)C[C@H](O[C@H]4CC[C@@]5(C)[C@H](CC[C@@H]6[C@@H]5C[C@@H](O)[C@]5(C)[C@@H](C7=CC(=O)OC7)CC[C@]65O)C4)O[C@@H]3C)O[C@@H]2C)C[C@H](O)[C@@H]1O [digoxin, reference compound] |  |  |  |  |  |  |  | significant reduction in the IL-17 gene expression | significantly inhibited | significant inhibition of IL-17 intracellular staining
